Test results published in patent US20110263521A1, “PHARMACEUTICAL OR COSMETIC PREPARATIONS FOR TOPICAL AND/OR PARENTERAL APPLICATION, PREPARATION METHODS THEREOF AND USE OF SAME” (priority 2007, published 2011).

Tests used:
[1] = target: T1, hyaluronidase of bovine origin (Bos taurus, UniProt Q2YDK3); experiment: Inhibitory effect of glycyrrhizin on hyaluronidase activity (turbidimetry of nonhydrolysed hyaluronic acid); type: biochemical; details: without preincubation with the enzyme; read-out: concentration of GLZ which gives 50% inhibition (IC50) of the hyaluronidase activity
T1 sequence (Q2YDK3 36-553): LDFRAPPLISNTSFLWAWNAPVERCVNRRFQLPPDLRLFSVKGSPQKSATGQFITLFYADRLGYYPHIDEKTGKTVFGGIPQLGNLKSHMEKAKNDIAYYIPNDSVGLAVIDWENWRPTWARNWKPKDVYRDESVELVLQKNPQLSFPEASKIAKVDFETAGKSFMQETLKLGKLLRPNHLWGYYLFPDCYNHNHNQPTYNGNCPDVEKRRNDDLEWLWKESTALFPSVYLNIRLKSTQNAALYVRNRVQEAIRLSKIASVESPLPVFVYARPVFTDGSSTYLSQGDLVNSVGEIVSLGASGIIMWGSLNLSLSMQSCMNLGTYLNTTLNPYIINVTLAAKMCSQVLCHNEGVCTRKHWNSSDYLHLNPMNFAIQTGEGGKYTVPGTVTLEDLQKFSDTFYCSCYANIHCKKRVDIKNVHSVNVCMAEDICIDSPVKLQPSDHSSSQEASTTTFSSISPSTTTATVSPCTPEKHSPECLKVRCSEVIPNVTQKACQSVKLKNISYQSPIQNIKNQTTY
Description: Determination of the IC50 of GLZ, with or without Preincubation at 37° C.:
GLZ, at various concentrations, is or is not preincubated for 20 minutes at 37° C. in the presence of the enzyme. The enzyme reaction is triggered by adding the hyaluronic acid solution (time T0). After incubation for 20 minutes, the nonhydrolysed hyaluronic acid is precipitated by adding acidic bovine albumin solution.
In order to verify that the preincubation step has no effect on the stability of the hyaluronidase, an aliquot of a solution of the enzyme is placed at 37° C. for 20 minutes. Another aliquot is conserved in an ice bath for 19 minutes, and is then incubated at 37° C. for 1 minute. A solution of hyaluronic acid is then added to each aliquot (TO). After incubation for 15, 30 or 45 minutes, the nonhydrolysed hyaluronic acid is precipitated by addition of acidic bovine albumin solution.
After the precipitation step, the turbidimetry of the solutions is determined on a spectrophotometer at a wavelength of 600 nm. The optical density (OD) of these solutions is subtracted from the OD of a control solution of hyaluronic acid (of the same concentration) not hydrolysed by the enzyme. This difference in OD, which is inversely proportional to the concentration of hyaluronic acid, is used to measure the activity of the hyaluronidase.

[2] = humans; cited from earlier work

Row | Compound | IC50 [1] [µM] | excretion in the urine [2]
1 | CC1(C)[C@@H](O[C@H]2O[C@H](C(=O)O)[C@@H](O)[C@H](O)[C@H]2O[C@@H]2O[C@H](C(=O)O)[C@@H](O)[C@H](O)[C@H]2O)CC[C@]2(C)[C@H]3C(=O)C=C4[C@@H]5C[C@@](C)(C(=O)O)CC[C@]5(C)CC[C@@]4(C)[C@]3(C)CC[C@@H]12 [GLZ, Glycyrrhizin] | 400 | –
2 | hyaluronic acid | – | less than 1 % of total clearance
